Reference: patent US20030176390A1, “Methods of treating insulin resistance syndrome and diabetes” (priority 2001, published 2003)

Columns and labels:
[1] = test system: A1 and A2 receptors; conditions: selectivity; cited from earlier work
[2] = test system: A2 receptor; conditions: relative to NECA; cited from earlier work
[3] = test system: rat adipocytes; assay: In vitro lipolysis assay (antilipolytic activity in rat adipocytes); format: cell-based; conditions: Rattus norvegicus, Adipocyte, 1 h; norepinephrine-stimulated lipolysis, glycerol assayed, 60 min; read-out: Lipo ec50
Protocol: Determination of Antilipolytic Activity in Rat Adipocytes
Isolation of Adipocytes from Epididymal Fat Pads
Adipose tissue is removed from anesthetized rats and rinsed twice in incubation medium (2.09 g sodium bicarbonate and 0.04 g EDTA, disodium salt, in 1 L Krebs buffer). Each rat (300-350 g) yields approximately 4 mL of adipose tissue. The adipose tissue (35 mL) is cut into small pieces with scissors and washed with incubation medium (50 mL). The mixture is poured into the barrel of a 50 mL syringe to which is attached a short piece of clamped tubing instead of a needle. The aqueous phase is allowed to drain. A second wash with incubation medium is passed through the syringe. The tissue is added to 50 mL of collagenase solution (collagenase (90 mg), bovine serum albumin (BSA) (500 mg), and 0.1 M calcium chloride solution (1 mL), in incubation medium (50 mL)) in a 1 L bottle. The mixture is shaken in an environmental at 37° C. for about 60 minutes under an atmosphere of 95% oxygen/5% carbon dioxide to effect digestion of the tissue. The dispersed cells are poured through 2 layers of cheese cloth into a 100 mL plastic beaker. The undigested clumps in the cloth are rinsed once with incubation medium (20 mL). The cells in the beaker are centrifuged in 2 plastic tubes for 30 seconds at room temperature at 300 rpm. The aqueous phase is aspirated from beneath the loosely packed layer of floating fat cells and discarded. The adipocytes are gently poured into a 250 mL plastic beaker containing 100 mL of rinse solution (1 g BSA per 100 mL incubation medium). After gentle stirring the centrifugation step is repeated. Another wash with rinse solution follows. The cells are pooled and their volume is estimated with a graduated cylinder. The adipocytes are diluted in twice their volume of assay buffer (incubation medium (120 mL), BSA (1.2 g), pyruvic acid (13 mg)).
The assay is performed in 20 mL plastic scintillation vials and the total assay volume is 4.2 mL. Assay buffer (2.5 mL), diluted adipocytes (1.5 mL), and a solution of the compound to be tested (12.3 μL) adenosine agonist (12.3 μl; varying concentration) is incubated in the environmental shaker for 15 minutes, then the reaction is started with norepinephrine solution (41.2 μL) (10 nM, in a carrier solution containing water (100 mL), BSA (4 mg), and 0.1 M EDTA (20 μL))and adenosine deaminase (1 μg/mL, 41.2 μl). After sixty minutes in the shaker the reaction is terminated by putting the vials on ice. […] The hard lipid layer is removed by aspiration and the aqueous layer is assayed for glycerol (400 μl of sample). The positive control is done in the absence of any adenosine agonist, substituting water in place of the solution to be tested.

[4] = Insulin tolerance test (3 U/kg s.c.) in insulin resistant Zucker Fatty rats after 3 weeks pretreatment; format: in vivo; parameters: unit not given here
Protocol: Measurement of Insulin Sensitivity in Conscious Rats.
Insulin resistant Zucker Fatty rats or Zucker Diabetic Fatty (ZDF) rats were treated for up to 3 weeks with the test compound orally once daily. Plasma parameters were obtained by retroorbital bleeding during inhalation anaesthesia on respective study days. […] In the case of improvement of insulin sensitivity by the test compound the blood glucose reduction was much more pronounced and prolonged compared to that of the control group.

[5] = Plasma free fatty acids in anaesthetized starved male Wistar rats; format: in vivo; parameters: unit not given here
Protocol: Measurement of Plasma Lipdis (Free Fatty Acids, Triglycerides, Cholesterol) in Anaesthetized Rats.
Plasma lipid levels were assayed in anaesthetized rats. Briefly, rats were anaesthetized with an intraperitoneal injection of pentobarbital sodium (60 mg/kg), tracheotomized, and one jugular vein per rat was cannulated for intravenous administration (bolus injection or infusion). Anesthesia was mantained for up to 7 hours by subcutaneous infusion of pentobarbital sodium (adjusted to the anesthetic depth of the individual animal; about 24 mg/kg/h). Body temperature was monitored with a rectal probe thermometer, and temperature was maintained at 37° C. by means of a heated surgical plate. The rats were allowed to stabilize their blood levels after surgery for up to 2 hours, after which the test compound was injected intraperitoneally. Blood samples for glucose analysis (10 μl) were obtained from the tip of the tail every 15 minutes. For analysis of plasma lipids blood samples (0.3 ml) were obtained from the jugular vein either every 10 to 15 minutes for up to 2 hours, or every hour for up to 5 hours after compound administration. Standard enzymatic procedures were used to determine blood glucose (Bergmeyer, 1974).

Compound: OC[C@H]1O[C@@H](n2cnc3c(NC4CCCC4)ncnc32)[C@H](O)[C@@H]1O [CPA, Cyclopentyladenosine]
- A2/A1 ratio [1]: 780

Compound: Nc1nc(Nc2ccccc2)nc2c1ncn2[C@@H]1O[C@H](CO)[C@@H](O)[C@H]1O [CV-1808]
- A2/A1 ratio [1]: 0.19
- fold less potent than NECA in its affinity for the A2 receptor [2]: 10 fold

Compound: COC[C@H]1C[C@@H](n2cnc3c(N[C@H]4CCN(c5ccc(C(F)(F)F)cn5)C4)ncnc32)[C@H](O)[C@@H]1O [Example 3, (1R,2S,3R,5R)-5-methoxymethyl-3-[6-[1-(5-trifluoromethylpyridin2-yl)pyrrolidin-3(S)-ylamino]-purin-9-yl]cyclopentane-1,2-diol]
- EC50 [3]: 5.62 nM
- Insulin tolerance test, blood glucose, mean ([4]; 1 mg/kg p.o. for 3 weeks (first group), 0 minutes after insulin): 4.60
- Insulin tolerance test, blood glucose, mean ([4]; 1 mg/kg p.o. for 3 weeks (first group), 60 minutes after insulin): 1.96
- Insulin tolerance test, blood glucose, mean ([4]; 1 mg/kg p.o. for 3 weeks (first group), 120 minutes after insulin): 1.59
- Insulin tolerance test, blood glucose, mean ([4]; 1 mg/kg p.o. for 3 weeks (first group), 180 minutes after insulin): 1.72
- Insulin tolerance test, blood glucose, mean ([4]; 1 mg/kg p.o. for 3 weeks (first group), 240 minutes after insulin): 3.02
- Insulin tolerance test, blood glucose, mean ([4]; 1 mg/kg p.o. for 3 weeks (first group), 300 minutes after insulin): 5.13
- Insulin tolerance test, blood glucose, mean ([4]; 1 mg/kg p.o. for 3 weeks (first group), 360 minutes after insulin): 4.98
- Insulin tolerance test, blood glucose, mean ([4]; 1 mg/kg p.o. for 3 weeks (first group), 420 minutes after insulin): 4.04
- Insulin tolerance test, blood glucose, mean ([4]; second group, (1 mg/kg p.o.), 3 weeks, 0 minutes after insulin): 5.17
- Insulin tolerance test, blood glucose, mean ([4]; second group, (1 mg/kg p.o.), 3 weeks, 60 minutes after insulin): 1.99
- Insulin tolerance test, blood glucose, mean ([4]; second group, (1 mg/kg p.o.), 3 weeks, 120 minutes after insulin): 1.57
- Insulin tolerance test, blood glucose, mean ([4]; second group, (1 mg/kg p.o.), 3 weeks, 180 minutes after insulin): 1.44
- Insulin tolerance test, blood glucose, mean ([4]; second group, (1 mg/kg p.o.), 3 weeks, 240 minutes after insulin): 2.54
- Insulin tolerance test, blood glucose, mean ([4]; second group, (1 mg/kg p.o.), 3 weeks, 300 minutes after insulin): 4.35
- Insulin tolerance test, blood glucose, mean ([4]; second group, (1 mg/kg p.o.), 3 weeks, 360 minutes after insulin): 5.63
- Insulin tolerance test, blood glucose, mean ([4]; second group, (1 mg/kg p.o.), 3 weeks, 420 minutes after insulin): 6.09
- plasma free fatty acids, mean ([5]; 10 mg/kg i.p., 10 minutes): 0.42
- plasma free fatty acids, mean ([5]; 10 mg/kg i.p., 20 minutes): 0.26
- plasma free fatty acids, mean ([5]; 10 mg/kg i.p., 30 minutes): 0.19
- plasma free fatty acids, mean ([5]; 10 mg/kg i.p., 40 minutes): 0.19
- plasma free fatty acids, mean ([5]; 10 mg/kg i.p., 60 minutes): 0.13
- plasma free fatty acids, mean ([5]; 10 mg/kg i.p., −60 minutes): 0.61
- plasma free fatty acids, mean ([5]; 30 mg/kg i.p., 10 minutes): 0.24
- plasma free fatty acids, mean ([5]; 30 mg/kg i.p., 20 minutes): 0.14
- plasma free fatty acids, mean ([5]; 30 mg/kg i.p., 30 minutes): 0.13
- plasma free fatty acids, mean ([5]; 30 mg/kg i.p., 40 minutes): 0.10
- plasma free fatty acids, mean ([5]; 30 mg/kg i.p., 60 minutes): 0.09
- plasma free fatty acids, mean ([5]; 30 mg/kg i.p., −60 minutes): 0.52
- melting point: 166 to 168 °C

Compound: OC[C@H]1C[C@@H](n2cnc3c(N[C@H]4CCN(c5ccccn5)C4)ncnc32)[C@H](O)[C@@H]1O [Example 35, (1R,2S,3R,5R)-5-hydroxymethyl-3-[6-[1-(pyridin-2-yl)pyrrolidin-3(S)-ylamino]-purin-9-yl]cyclopentane-1,2-diol]
- EC50 [3]: 48 nM
- melting point: 110 to 112 °C

Compound: COC[C@H]1C[C@@H](n2cnc3c(N[C@H]4CCN(c5ncc(C(F)(F)F)cc5Cl)C4)ncnc32)[C@H](O)[C@@H]1O [Example 44, (1R,2S,3R,5R)-3-[6-[1-(3-chloro-5-trifluoromethylpyridin-2-yl)pyrrolidin-3(S)-ylamino]-purin-9-yl]-5-methoxymethylcyclopentane-1,2-diol]
- EC50 [3]: 226 nM
- melting point: 140 to 143 °C

Compound: COC[C@H]1C[C@@H](n2cnc3c(N[C@H]4CCN(c5ccc(Cl)nn5)C4)ncnc32)[C@H](O)[C@@H]1O [Example 51, (1R,2S,3R,5R)-3-[6-[1-(6-chloropyridazin-3-yl)pyrrolidin-3(S)-ylamino]-purin-9-yl]-5-methoxymethylcyclopentane-1,2-diol]
- EC50 [3]: 18.6 nM
- melting point: 122 to 124 °C

Compound: OC[C@H]1C[C@@H](n2cnc3c(N[C@H]4CCN(c5ccc(C(F)(F)F)cc5)C4)ncnc32)[C@H](O)[C@@H]1O [Example 5, (1R,2S,3R,5R)-3-[6-[1-(4-trifluoromethylphenyl)-pyrrolidin-3(S)-ylamino]-purin-9-yl]-5-hydroxymethylcyclopentane-1,2-diol]
- EC50 [3]: 2 nM
- melting point: 111 to 114 °C

Compound: N#Cc1ccc(N2CC[C@H](Nc3ncnc4c3ncn4[C@@H]3C[C@H](CO)[C@@H](O)[C@H]3O)C2)cc1 [Example 40, 4-[3(S)-[9-((1R,2S,3R,5R)-1,2-dihydroxy-5-hydroxymethylcyclopent-3-yl)-9H-purin-6-ylamino]pyrrolidin-1-yl]benzonitrile]
- EC50 [3]: 10.5 nM
- melting point: 140 °C

Compound: CC[C@H](C)NC(=O)[C@H]1C[C@@H](n2cnc3c(N[C@H]4CCN(c5ccc(C(F)(F)F)cn5)C4)ncnc32)[C@H](O)[C@@H]1O [Example 61, (1S,2R,3S,4R)-2,3-dihydroxy-4-{6-[1-(5-trifluoromethyl-pyridin-2-yl)-pyrrolidin-3(S)-ylamino]-purin-9-yl}-cyclopentanecarboxylic acid-1(S)-methylpropylamide]
- EC50 [3]: 18 nM
- melting point: 215 °C (dec.)

Compound: Cl.Cl.OC[C@H]1C[C@@H](n2cnc3c(N[C@H]4CCNC4)ncnc32)[C@H](O)[C@@H]1O [Example 26, (1R,2S,3R,5R)-5-hydroxymethyl-3-[6-((3S)-pyrrolidin-3-ylamino)-purin-9-yl]cyclopentane-1,2-diol dihydrochloride]
- EC50 [3]: 178 nM
- melting point: 160 °C (dec.)

Compound: OC[C@H]1C[C@@H](n2cnc3c(N[C@H]4CCN(c5cccc(Cl)c5)C4)ncnc32)[C@H](O)[C@@H]1O [Example 57, (1R,2S,3R,5R)-3-[6-[1-(3-chlorophenyl)-pyrrolidin-3(S)-ylamino]-purin-9-yl]-5-hydroxymethylcyclopentane-1,2-diol]
- EC50 [3]: 63.5 nM
- melting point: 131 to 133 °C
